Results taken from patent EP3960748A1, “COMPOSITION FOR THE TREATMENT OF THE SIDE EFFECTS OF RADIOTHERAPY AND/OR CHEMOTHERAPY” (Fundación Profesor Novoa Santos, priority 2019, dated 2020).

Key:
Format in all cases: cell-based
[1] = tested on: p21; assay: Gene expression analysis (qPCR) of p21; details: Fig. 8; 72 hours; oleuropein 10 µM, BIRB796 2.5 µM; 55 Grays; normalized against HPRT1
Source text: (§1) Skin tissue biopsies from female patients of A Coruña University Hospital Complex - A Coruña Integrated Management Services (Complejo Hospitalario Universitario de A Coruña - Xerencia Xestión Integrada A Coruña (CHUAC-XXIAC)) were obtained from operations for the surgical removal of a benign pathology (fibroadenoma, samples consisting of untreated healthy skin) and from oncology interventions (samples consisting of skin subjected to radiotherapy and chemotherapy). Signed informed consent was received from each of the patients (2015/029, C.0003333, 2016/077). To isolate primary fibroblast from these samples, hypodermal fat was removed with the aid of a scalpel, and the epidermis was segmented into fragments of about 1x1 cm (explants). Lines were made with a scalpel on a 100 cm^2 adherent Petri dish creating a grid, and each of the explants was placed in the resulting intersections with the epidermis facing up and the dermis in contact with the dish. […] The working concentrations of said compounds were determined by means of literature review and cell viability assays (MTT). […]
(§2) For RNA extraction from the different cell types, TRI Reagent (MRC) was used following the manufacturer's instructions. […] The amount and quality of the obtained RNA was quantified in Nanodrop ND-1000. […]

[2] = tested on: p53; assay: Western blot of p53 in radiated fibroblasts; details: Fig. 7; post-radiation treatment for 72 hours; oleuropein 10 µM, BIRB796 2.5 µM; 55 Grays; relative to tubulin
Source text: as §1

[3] = tested on: MMP-3; assay: Gene expression analysis (qPCR) of MMP-3; details: Fig. 5B; 72 hours, BIRB796 2.5 µM; 55 Grays; normalized against HPRT1, compared to non-radiated healthy fibroblast control
Source text: as §1, §2

[4] = tested on: IL-1β; assay: Gene expression analysis (qPCR) of IL-1β; details: Fig. 5C; 72 hours, BIRB796 2.5 µM with or without oleuropein; 55 Grays; normalized against HPRT1
Source text: as §1, §2

[5] = tested on: IL-6; assay: Gene expression analysis (qPCR) of IL-6; details: Fig. 5C; 72 hours, BIRB796 2.5 µM with or without oleuropein; 55 Grays; normalized against HPRT1
Source text: as §1, §2

[6] = tested on: p21; assay: Western blot of p21 in radiated fibroblasts; details: Fig. 7; post-radiation treatment for 72 hours; oleuropein 10 µM, BIRB796 2.5 µM; 55 Grays; relative to tubulin
Source text: as §1

With `Cc1ccc(-n2nc(C(C)(C)C)cc2NC(=O)Nc2ccc(OCCN3CCOCC3)c3ccccc23)cc1` [BIRB796, doramapimod] the “p21 mRNA level” value [1] was “reduces the gene expression of senescence factor p21”, the “protein levels of p53” value [2] was “effectively reduced protein levels of both factors” and the “MMP-3 mRNA levels” value [3] was “protects against the synthesis of SASP components such as MMP-3”. For the same compound, the “IL-1β mRNA levels” value [4] was “decreases synthesis of the inflammatory component”, the “IL-6 mRNA levels” value [5] was “decreases synthesis of the inflammatory component” and the “protein levels of p21” value [6] was “effectively reduced protein levels of both factors”.
